Source: ChEMBL document CHEMBL3885881, “DrugMatrix”

Species: Rattus norvegicus
Assay: DrugMatrix - Regimen: Daily Repeat
Format: toxicity, organism-based, Sprague-Dawley
Set-up: regimen Daily Repeat, gender Male, age 6-8 weeks
Details: in vivo, po, route oral GAVAGE, vehicle 100 % WATER; for ABSOLUTE BASOPHIL / ABSOLUTE EOSINOPHIL / ABSOLUTE LYMPHOCYTE / ABSOLUTE MONOCYTE / ABSOLUTE SEGMENTED NEUTROPHIL / BASOPHIL / EOSINOPHIL / ERYTHROCYTE COUNT / HEMATOCRIT / HEMOGLOBIN / LEUKOCYTE COUNT / LYMPHOCYTE / MEAN CORPUSCULAR HEMOGLOBIN / MEAN CORPUSCULAR HEMOGLOBIN CONCENTRATION / MEAN CORPUSCULAR VOLUME / MONOCYTE / NEUTROPHIL / NUCLEATED RED BLOOD CELLS / PLATELET COUNT: tissue Blood; for ALANINE AMINOTRANSFERASE / ALBUMIN / ALKALINE PHOSPHATASE / ASPARTATE AMINOTRANSFERASE / BLOOD UREA NITROGEN / CARBON DIOXIDE / CHLORIDE / CHOLESTEROL / CREATINE PHOSPHOKINASE / CREATININE / GLUCOSE / LACTATE DEHYDROGENASE / LIPASE / PHOSPHORUS / POTASSIUM / SODIUM / TOTAL BILIRUBIN / TOTAL PROTEIN / URIC ACID: tissue Plasma
[1] = 0 mg/kg, 72 h, dose level Control, time 3 day
[2] = 0 mg/kg, 120 h, dose level Control, time 5 day
[3] = 10 mg/kg, 72 h, dose level Low, time 3 day

Which “ABSOLUTE BASOPHIL” value [1] does the source give for NNc1nncc2ccccc12 [HYDRALAZINE] here?
The value was 0 CELLS/uL.

And the “ABSOLUTE EOSINOPHIL” value [1]?
Its value is 20.17 CELLS/uL.

And the “ABSOLUTE LYMPHOCYTE” value [1]?
The value was 12371.67 CELLS/uL.

And the “ABSOLUTE MONOCYTE” value [1]?
The value was 166 CELLS/uL.

And the “ABSOLUTE SEGMENTED NEUTROPHIL” value [1]?
The value was 1292.17 CELLS/uL.

And the BASOPHIL [1]?
Its BASOPHIL is 0%.

What about the EOSINOPHIL [1] of the same compound?
Its EOSINOPHIL is 0.17%.

What about the “ERYTHROCYTE COUNT” value [1] of the same compound?
The value was 5.46 x10E6/uL.

What about the HEMATOCRIT [1] of the same compound?
The HEMATOCRIT was 34.38%.

And the HEMOGLOBIN [1]?
The HEMOGLOBIN was 13.32 G/DL.

What about the “LEUKOCYTE COUNT” value [1] of the same compound?
Its value is 13.85 x10E3/uL.

And the LYMPHOCYTE [1]?
The LYMPHOCYTE was 88.5%.

And the “MEAN CORPUSCULAR HEMOGLOBIN” value [1]?
Its value is 24.42 pg.

And the “MEAN CORPUSCULAR HEMOGLOBIN CONCENTRATION” value [1]?
The value was 38.7 G/DL.

And the “MEAN CORPUSCULAR VOLUME” value [1]?
Its value is 63.07 fL.

What about the MONOCYTE [1] of the same compound?
The MONOCYTE was 1.17%.

And the NEUTROPHIL [1]?
Its NEUTROPHIL is 10.17%.

What about the “NUCLEATED RED BLOOD CELLS” value [1] of the same compound?
The value was 0.17 /100WBC.

What about the “PLATELET COUNT” value [1] of the same compound?
The value was 1193.5 x10E3/uL.

And the “ALANINE AMINOTRANSFERASE” value [1]?
Its value is 54.5 u/L.

And the ALBUMIN [1]?
The ALBUMIN was 4.02 G/DL.

And the “ALKALINE PHOSPHATASE” value [1]?
The value was 346.5 u/L.

What about the “ASPARTATE AMINOTRANSFERASE” value [1] of the same compound?
The value was 103.17 u/L.

What about the “BLOOD UREA NITROGEN” value [1] of the same compound?
The value was 16.5 mg/dL.

And the “CARBON DIOXIDE” value [1]?
The value was 29.83 mmol/L.

And the CHLORIDE [1]?
Its CHLORIDE is 99.5 MEQ/L.

And the CHOLESTEROL [1]?
Its CHOLESTEROL is 72.5 mg/dL.

And the “CREATINE PHOSPHOKINASE” value [1]?
Its value is 532.5 u/L.

What about the CREATININE [1] of the same compound?
The CREATININE was 0.18 mg/dL.

What about the GLUCOSE [1] of the same compound?
The GLUCOSE was 168.5 mg/dL.

And the “LACTATE DEHYDROGENASE” value [1]?
The value was 536.5 u/L.

And the LIPASE [1]?
The LIPASE was 11.17 u/L.

And the PHOSPHORUS [1]?
The PHOSPHORUS was 11.48 mg/dL.

And the POTASSIUM [1]?
Its POTASSIUM is 5.95 MEQ/L.

What about the SODIUM [1] of the same compound?
The SODIUM was 140.5 MEQ/L.

What about the “TOTAL BILIRUBIN” value [1] of the same compound?
Its value is 0.18 mg/dL.

What about the “TOTAL PROTEIN” value [1] of the same compound?
Its value is 5.77 G/DL.

And the “URIC ACID” value [1]?
Its value is 1.42 mg/dL.

What about the “ABSOLUTE BASOPHIL” value [2] of the same compound?
The value was 0 CELLS/uL.

And the “ABSOLUTE EOSINOPHIL” value [2]?
Its value is 22.83 CELLS/uL.

And the “ABSOLUTE LYMPHOCYTE” value [2]?
Its value is 12202.83 CELLS/uL.

And the “ABSOLUTE MONOCYTE” value [2]?
The value was 158 CELLS/uL.

What about the “ABSOLUTE SEGMENTED NEUTROPHIL” value [2] of the same compound?
Its value is 1283 CELLS/uL.

What about the BASOPHIL [2] of the same compound?
Its BASOPHIL is 0%.

What about the EOSINOPHIL [2] of the same compound?
The EOSINOPHIL was 0.17%.

And the “ERYTHROCYTE COUNT” value [2]?
Its value is 5.88 x10E6/uL.

And the HEMATOCRIT [2]?
The HEMATOCRIT was 36.62%.

What about the HEMOGLOBIN [2] of the same compound?
The HEMOGLOBIN was 14.07 G/DL.

What about the “LEUKOCYTE COUNT” value [2] of the same compound?
Its value is 13.67 x10E3/uL.

And the LYMPHOCYTE [2]?
The LYMPHOCYTE was 89.5%.

And the “MEAN CORPUSCULAR HEMOGLOBIN” value [2]?
Its value is 23.95 pg.

What about the “MEAN CORPUSCULAR HEMOGLOBIN CONCENTRATION” value [2] of the same compound?
Its value is 38.43 G/DL.

And the “MEAN CORPUSCULAR VOLUME” value [2]?
The value was 62.28 fL.

What about the MONOCYTE [2] of the same compound?
Its MONOCYTE is 1.17%.

And the NEUTROPHIL [2]?
Its NEUTROPHIL is 9.17%.

What about the “NUCLEATED RED BLOOD CELLS” value [2] of the same compound?
Its value is 0.17 /100WBC.

And the “PLATELET COUNT” value [2]?
The value was 1198 x10E3/uL.

What about the “ALANINE AMINOTRANSFERASE” value [2] of the same compound?
The value was 51 u/L.

And the ALBUMIN [2]?
Its ALBUMIN is 4.3 G/DL.

What about the “ALKALINE PHOSPHATASE” value [2] of the same compound?
Its value is 343 u/L.

What about the “ASPARTATE AMINOTRANSFERASE” value [2] of the same compound?
The value was 89.83 u/L.

What about the “BLOOD UREA NITROGEN” value [2] of the same compound?
The value was 17.67 mg/dL.

And the “CARBON DIOXIDE” value [2]?
Its value is 27.17 mmol/L.

And the CHLORIDE [2]?
Its CHLORIDE is 98.33 MEQ/L.

What about the CHOLESTEROL [2] of the same compound?
The CHOLESTEROL was 82.5 mg/dL.

And the “CREATINE PHOSPHOKINASE” value [2]?
The value was 533.33 u/L.

What about the CREATININE [2] of the same compound?
The CREATININE was 0.18 mg/dL.

What about the GLUCOSE [2] of the same compound?
Its GLUCOSE is 152.67 mg/dL.

What about the “LACTATE DEHYDROGENASE” value [2] of the same compound?
Its value is 220.33 u/L.

And the LIPASE [2]?
Its LIPASE is 11.5 u/L.

And the PHOSPHORUS [2]?
Its PHOSPHORUS is 11.25 mg/dL.

And the POTASSIUM [2]?
The POTASSIUM was 6.29 MEQ/L.

What about the SODIUM [2] of the same compound?
The SODIUM was 140.53 MEQ/L.

What about the “TOTAL BILIRUBIN” value [2] of the same compound?
The value was 0.22 mg/dL.

And the “TOTAL PROTEIN” value [2]?
The value was 6.12 G/DL.

What about the “URIC ACID” value [2] of the same compound?
Its value is 1.42 mg/dL.

What about the “ABSOLUTE BASOPHIL” value [3] of the same compound?
The value was 0 CELLS/uL.

What about the “ABSOLUTE EOSINOPHIL” value [3] of the same compound?
The value was 33.33 CELLS/uL.

What about the “ABSOLUTE LYMPHOCYTE” value [3] of the same compound?
Its value is 12179.67 CELLS/uL.

And the “ABSOLUTE MONOCYTE” value [3]?
Its value is 152 CELLS/uL.

And the “ABSOLUTE SEGMENTED NEUTROPHIL” value [3]?
The value was 1268.33 CELLS/uL.

And the BASOPHIL [3]?
Its BASOPHIL is 0%.

What about the EOSINOPHIL [3] of the same compound?
The EOSINOPHIL was 0.33%.

What about the “ERYTHROCYTE COUNT” value [3] of the same compound?
Its value is 5.03 x10E6/uL.

What about the HEMATOCRIT [3] of the same compound?
The HEMATOCRIT was 31.97%.

What about the HEMOGLOBIN [3] of the same compound?
Its HEMOGLOBIN is 12.87 G/DL.

What about the “LEUKOCYTE COUNT” value [3] of the same compound?
The value was 13.63 x10E3/uL.

What about the LYMPHOCYTE [3] of the same compound?
The LYMPHOCYTE was 89.67%.

And the “MEAN CORPUSCULAR HEMOGLOBIN” value [3]?
Its value is 25.6 pg.

And the “MEAN CORPUSCULAR HEMOGLOBIN CONCENTRATION” value [3]?
The value was 40.27 G/DL.

And the “MEAN CORPUSCULAR VOLUME” value [3]?
Its value is 63.57 fL.

And the MONOCYTE [3]?
The MONOCYTE was 1%.

What about the NEUTROPHIL [3] of the same compound?
The NEUTROPHIL was 9%.

And the “NUCLEATED RED BLOOD CELLS” value [3]?
Its value is 0 /100WBC.

And the “PLATELET COUNT” value [3]?
Its value is 1225.67 x10E3/uL.

And the “ALANINE AMINOTRANSFERASE” value [3]?
The value was 46.67 u/L.

What about the ALBUMIN [3] of the same compound?
Its ALBUMIN is 3.87 G/DL.

And the “ALKALINE PHOSPHATASE” value [3]?
Its value is 333.67 u/L.

And the “ASPARTATE AMINOTRANSFERASE” value [3]?
Its value is 83.33 u/L.

What about the “BLOOD UREA NITROGEN” value [3] of the same compound?
The value was 16 mg/dL.

What about the “CARBON DIOXIDE” value [3] of the same compound?
The value was 30.33 mmol/L.

What about the CHLORIDE [3] of the same compound?
The CHLORIDE was 100.33 MEQ/L.

And the CHOLESTEROL [3]?
The CHOLESTEROL was 61.33 mg/dL.

What about the “CREATINE PHOSPHOKINASE” value [3] of the same compound?
Its value is 318 u/L.

What about the CREATININE [3] of the same compound?
The CREATININE was 0.15 mg/dL.

What about the GLUCOSE [3] of the same compound?
Its GLUCOSE is 154 mg/dL.

And the “LACTATE DEHYDROGENASE” value [3]?
Its value is 304.33 u/L.

And the LIPASE [3]?
Its LIPASE is 10.33 u/L.

And the PHOSPHORUS [3]?
Its PHOSPHORUS is 11.37 mg/dL.

And the POTASSIUM [3]?
Its POTASSIUM is 6.36 MEQ/L.

And the SODIUM [3]?
The SODIUM was 141.6 MEQ/L.

And the “TOTAL BILIRUBIN” value [3]?
The value was 0.2 mg/dL.

What about the “TOTAL PROTEIN” value [3] of the same compound?
The value was 5.7 G/DL.

What about the “URIC ACID” value [3] of the same compound?
Its value is 1.67 mg/dL.
